Measured values published in patent US7504400B2, “MTP inhibiting aryl piperydines or piperazines substituted with 5-membered heterocycles” (Janssen Pharmaceutica N.V., priority 2004, dated 2009).

Test system: Secretion of ApoB
Assay: Quantification of the secretion of ApoB in HepG2 cells
Format: cell-based
Details: Homo sapiens, HepG2, 24 h, 24 hours of incubation with test compound, immunoprecipitation of apoB from medium, read-out: pIC50 value (=-log IC50 value), secretion of ApoB (converted)
Method in brief: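 At 70% confluency, HepG2 cells in MEM with 10% FCS received compound or DMSO carrier (0.4% final) for 24 h. Secreted apoB in cleared medium immunoprecipitated with sheep anti-apoB then rabbit anti-sheep antibody (24 h each, 8° C); pellet radioactivity counted by liquid scintillation; IC50 expressed as pIC50.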

| IC50 [nM] | SMILES |
| --- | --- |
| 31.6 to 316 | CCOC(=O)C(c1ccccc1)N1CCC(c2ccc(-n3ccn([C@H](C)c4cccc5ccccc45)c3=O)cc2)CC1 (stereo partly shown) [Compound 225] |
| 316 to 3160 | CCOC(=O)C(c1ccccc1)N1CCC(c2ccc(-n3ccn([C@@H](C)c4cccc5ccccc45)c3=O)cc2)CC1 (stereo partly shown) [Compound 226] |
| 31.6 to 316 | CCOC(=O)C(c1ccccc1)N1CCC(c2ccc(-n3ccn([C@H](C)c4ccccc4)c3=O)cc2)CC1 (stereo partly shown) [Compound 227] |
| 316 to 3160 | CCOC(=O)C(c1ccccc1)N1CCC(c2ccc(-n3ccn([C@@H](C)c4ccccc4)c3=O)cc2)CC1 (stereo partly shown) [Compound 228] |
| 31.6 to 316 | CCOC(=O)C(c1ccccc1)N1CCC(c2ccc(-n3ccn([C@H](C)c4ccc(Br)cc4)c3=O)cc2)CC1 (stereo partly shown) [Compound 229] |
| 316 to 3160 | CCOC(=O)C(c1ccccc1)N1CCC(c2ccc(-n3ccn([C@@H](C)c4ccc(Br)cc4)c3=O)cc2)CC1 (stereo partly shown) [Compound 230] |
| 316 to 3160 | CCOC(=O)C(c1ccccc1)N1CCC(c2ccc(-n3ccn([C@@H](C)c4ccc5ccccc5c4)c3=O)cc2)CC1 (stereo partly shown) [Compound 231] |
| 31.6 to 316 | CCOC(=O)C(c1ccccc1)N1CCC(c2ccc(-n3ccn([C@H](C)c4ccc5ccccc5c4)c3=O)cc2)CC1 (stereo partly shown) [Compound 232] |
| 31.6 to 316 | CCOC(=O)C(c1ccccc1)N1CCC(c2ccc(-n3ccn([C@H](C)c4ccc(C)cc4)c3=O)cc2)CC1 (stereo partly shown) [Compound 233] |
| 316 to 3160 | CCOC(=O)C(c1ccccc1)N1CCC(c2ccc(-n3ccn([C@@H](C)c4ccc(C)cc4)c3=O)cc2)CC1 (stereo partly shown) [Compound 234] |
| 31.6 to 316 | CCOC(=O)C(c1ccccc1)N1CCC(c2ccc(-n3ccn([C@H](C)c4ccc(Cl)cc4)c3=O)cc2)CC1 (stereo partly shown) [Compound 235] |
| 316 to 3160 | CCOC(=O)C(c1ccccc1)N1CCC(c2ccc(-n3ccn([C@@H](C)c4ccc(Cl)cc4)c3=O)cc2)CC1 (stereo partly shown) [Compound 236] |
| 31.6 to 316 | CCOC(=O)C(c1ccccc1)N1CCC(c2ccc(-n3ccn([C@H](C)c4cccc(OC)c4)c3=O)cc2)CC1 (stereo partly shown) [Compound 237] |
| 316 to 3160 | CCOC(=O)C(c1ccccc1)N1CCC(c2ccc(-n3ccn([C@@H](C)c4cccc(OC)c4)c3=O)cc2)CC1 (stereo partly shown) [Compound 238] |
| 316 to 3160 | CCOC(=O)C(c1ccccc1)N1CCC(c2ccc(-n3ccn([C@H](COC)c4ccccc4)c3=O)cc2)CC1 (stereo partly shown) [Compound 239] |
| 316 to 3160 | CCOC(=O)C(c1ccccc1)N1CCC(c2ccc(-n3ccn([C@@H](COC)c4ccccc4)c3=O)cc2)CC1 (stereo partly shown) [Compound 240] |
| 316 to 3160 | CCOC(=O)C(c1ccccc1)N1CCC(c2ccc(-n3ccn([C@@H](C)C4CCCCC4)c3=O)cc2)CC1 (stereo partly shown) [Compound 241] |

| IC50 [nM] | SMILES |
| --- | --- |
| 31.6 to 316 | CCOC(=O)C(c1ccccc1)N1CCC(c2ccc(-n3ccn(C(CC)c4ccccc4)c3=O)cc2)CC1 (stereo not shown) [Compound 242] |
| 316 to 3160 | CCOC(=O)C(c1ccccc1)C1CCN(c2ccc(-n3ccn([C@@H](C)c4ccc(F)cc4)c3=O)cc2)CC1 (stereo partly shown) [Compound 243] |
| 31.6 to 316 | CCOC(=O)C(c1ccccc1)C1CCN(c2ccc(-n3ccn([C@H](C)c4ccc(F)cc4)c3=O)cc2)CC1 (stereo partly shown) [Compound 244] |
| 316 to 3160 | CCOC(=O)C(c1ccccc1)C1CCN(c2ccc(-n3ccn([C@@H](C)c4ccccc4)c3=O)cc2)CC1 (stereo partly shown) [Compound 248] |
| 31.6 to 316 | CCOC(=O)C(c1ccccc1)C1CCN(c2ccc(-n3ccn([C@H](C)c4ccc(Br)cc4)c3=O)cc2)CC1 (stereo partly shown) [Compound 249] |
| 316 to 3160 | CCOC(=O)C(c1ccccc1)C1CCN(c2ccc(-n3ccn([C@@H](C)c4ccc(Br)cc4)c3=O)cc2)CC1 (stereo partly shown) [Compound 250] |
| 31.6 to 316 | CCOC(=O)C(c1ccccc1)C1CCN(c2ccc(-n3ccn([C@H](C)c4ccc(C)cc4)c3=O)cc2)CC1 (stereo partly shown) [Compound 253] |
| 316 to 3160 | CCOC(=O)C(c1ccccc1)C1CCN(c2ccc(-n3ccn([C@@H](C)c4ccc(C)cc4)c3=O)cc2)CC1 (stereo partly shown) [Compound 254] |
| 31.6 to 316 | CCOC(=O)C(c1ccccc1)C1CCN(c2ccc(-n3ccn([C@H](C)c4ccc(Cl)cc4)c3=O)cc2)CC1 (stereo partly shown) [Compound 255] |
| 316 to 3160 | CCOC(=O)C(c1ccccc1)C1CCN(c2ccc(-n3ccn([C@@H](C)c4ccc(Cl)cc4)c3=O)cc2)CC1 (stereo partly shown) [Compound 256] |
| 31.6 to 316 | CCOC(=O)C(c1ccccc1)N1CCC(c2ccc(-n3ccn([C@H](C)c4cccc(C(F)(F)F)c4)c3=O)cc2)CC1 (stereo partly shown) [Compound 276] |
| 31.6 to 316 | CCOC(=O)C(c1ccccc1)N1CCC(c2ccc(-n3ccn([C@H](C)c4ccc(C(F)(F)F)cc4)c3=O)cc2)CC1 (stereo partly shown) [Compound 277] |
| 31.6 to 316 | CCOC(=O)C(c1ccccc1)N1CCC(c2ccc(-n3ccn([C@H](C)c4ccccc4F)c3=O)cc2)CC1 (stereo partly shown) [Compound 278] |
| 316 to 3160 | CCOC(=O)C(c1ccccc1)N1CCC(c2ccc(-n3ccn([C@@H](C)c4ccccc4F)c3=O)cc2)CC1 (stereo partly shown) [Compound 279] |
| 31.6 to 316 | CCOC(=O)C(c1ccccc1)N1CCC(c2ccc(-n3ccn([C@H](C)C4CCCCC4)c3=O)cc2)CC1 (stereo partly shown) [Compound 296] |
| 31.6 to 316 | CCOC(=O)C(c1ccccc1)N1CCN(c2ccc(-n3ccn([C@H](C)c4ccccc4)c3=O)c(C)c2)CC1 (stereo partly shown) [Compound 297] |

The remaining lines, values behind:

| SMILES | IC50 [nM] |
| --- | --- |
| CCOC(=O)C(c1ccccc1)C1CCN(c2ccc(-n3ccn([C@H](C)c4cccc5ccccc45)c3=O)cc2)CC1 (stereo partly shown) [Compound 245] | 316 to 3160 |
| CCOC(=O)C(c1ccccc1)C1CCN(c2ccc(-n3ccn([C@@H](C)c4cccc5ccccc45)c3=O)cc2)CC1 (stereo partly shown) [Compound 246] | 316 to 3160 |
| CCOC(=O)C(c1ccccc1)C1CCN(c2ccc(-n3ccn([C@H](C)c4ccccc4)c3=O)cc2)CC1 (stereo partly shown) [Compound 247] | 31.6 to 316 |
| CCOC(=O)C(c1ccccc1)C1CCN(c2ccc(-n3ccn([C@@H](C)c4ccc5ccccc5c4)c3=O)cc2)CC1 (stereo partly shown) [Compound 251] | 316 to 3160 |
| CCOC(=O)C(c1ccccc1)C1CCN(c2ccc(-n3ccn([C@H](C)c4ccc5ccccc5c4)c3=O)cc2)CC1 (stereo partly shown) [Compound 252] | 316 to 3160 |
| CCOC(=O)C(c1ccccc1)C1CCN(c2ccc(-n3ccn([C@H](C)c4cccc(OC)c4)c3=O)cc2)CC1 (stereo partly shown) [Compound 257] | 316 to 3160 |
| CCOC(=O)C(c1ccccc1)C1CCN(c2ccc(-n3ccn([C@@H](C)c4cccc(OC)c4)c3=O)cc2)CC1 (stereo partly shown) [Compound 258] | 316 to 3160 |
| CCOC(=O)C(c1ccccc1)C1CCN(c2ccc(-n3ccn([C@H](COC)c4ccccc4)c3=O)cc2)CC1 (stereo partly shown) [Compound 259] | 316 to 3160 |
| CCOC(=O)C(c1ccccc1)C1CCN(c2ccc(-n3ccn([C@@H](COC)c4ccccc4)c3=O)cc2)CC1 (stereo partly shown) [Compound 260] | 316 to 3160 |
| CCOC(=O)C(c1ccccc1)C1CCN(c2ccc(-n3ccn([C@@H](C)C4CCCCC4)c3=O)cc2)CC1 (stereo partly shown) [Compound 261] | 31.6 to 316 |
| CCOC(=O)C(c1ccccc1)C1CCN(c2ccc(-n3ccn([C@H](C)C4CCCCC4)c3=O)cc2)CC1 (stereo partly shown) [Compound 262] | 31.6 to 316 |
| CCOC(=O)C(c1ccccc1)C1CCN(c2ccc(-n3ccn(C(CC)c4ccccc4)c3=O)cc2)CC1 (stereo not shown) [Compound 263] | 31.6 to 316 |
| COC(=O)CC1CCN(c2ccc(-n3ccn(C(C)c4ccccc4)c3=O)cc2)CC1 (stereo not shown) [Compound 264] | 316 to 3160 |
| CCOC(=O)C(c1ccccc1)N1CCN(c2ccc(-n3cnn(C(C)c4ccccc4)c3=O)cc2)CC1 (stereo not shown) [Compound 265] | 316 to 3160 |
| CCOC(=O)C(c1ccccc1)N1CCN(c2ccc(-n3cnn(C(C)c4ccc(F)cc4)c3=O)cc2)CC1 (stereo not shown) [Compound 266] | 316 to 3160 |
| COC(=O)c1cc(NC(=O)C(c2ccccc2)N2CCN(c3ccc(-n4cnn(C(C)c5ccccc5)c4=O)cc3)CC2)ccc1C (stereo not shown) [Compound 283] | < 31.6 |

| SMILES | IC50 [nM] |
| --- | --- |
| COC(=O)c1cc(NC(=O)C(c2ccccc2)N2CCC(c3ccc(-n4cnn(C(C)c5ccccc5)c4=O)cc3)CC2)ccc1C (stereo not shown) [Compound 284] | < 31.6 |
| COC(=O)c1ccc(NC(=O)C(c2ccccc2)N2CCC(c3ccc(-n4cnn(C(C)C)c4=O)cc3)CC2)cc1C (stereo not shown) [Compound 285] | < 31.6 |
| COC(=O)c1ccc(CNC(=O)C(c2ccccc2)N2CCN(c3ccc(-n4ccn(C(C)C)c4=O)c(C)c3)CC2)cc1C (stereo not shown) [Compound 286] | 31.6 to 316 |
| COC(=O)c1ccc(CNC(=O)C(c2ccccc2)N2CCN(c3ccc(-n4cnn(C(C)c5ccccc5)c4=O)cc3)CC2)cc1C (stereo not shown) [Compound 287] | 316 to 3160 |
| COC(=O)c1ccc(CNC(=O)C(c2ccccc2)N2CCC(c3ccc(-n4cnn(C(C)C)c4=O)cc3)CC2)cc1C (stereo not shown) [Compound 288] | 31.6 to 316 |
| COC(=O)c1ccccc1CNC(=O)C(c1ccccc1)N1CCN(c2ccc(-n3ccn(C(C)C)c3=O)c(C)c2)CC1 (stereo not shown) [Compound 289] | 31.6 to 316 |
| COC(=O)c1cccc(CNC(=O)C(c2ccccc2)N2CCN(c3ccc(-n4ccn(C(C)C)c4=O)c(C)c3)CC2)c1 (stereo not shown) [Compound 290] | 316 to 3160 |
| COC(=O)c1cccc(CNC(=O)C(c2ccccc2)N2CCN(c3ccc(-n4ccn(C(C)c5ccccc5)c4=O)cc3)CC2)c1 (stereo not shown) [Compound 291] | 316 to 3160 |
| COC(=O)c1ccc(CNC(=O)C(c2ccccc2)N2CCN(c3ccc(-n4ccn(C(C)C)c4=O)c(C)c3)CC2)cc1 (stereo not shown) [Compound 293] | 316 to 3160 |
| COC(=O)c1ccc(CNC(=O)C(c2ccccc2)N2CCN(c3ccc(-n4cnn(C(C)c5ccccc5)c4=O)cc3)CC2)cc1 (stereo not shown) [Compound 294] | 316 to 3160 |
| COC(=O)c1ccc(CNC(=O)C(c2ccccc2)N2CCC(c3ccc(-n4cnn(C(C)C)c4=O)cc3)CC2)cc1 (stereo not shown) [Compound 295] | 31.6 to 316 |
| CC(C)n1ncn(-c2ccc(N3CCN(C(C(=O)Nc4ccc5c(c4)CCN(C(=O)OC(C)(C)C)C5)c4ccccc4)CC3)cc2)c1=O (stereo not shown) [Compound 305] | 31.6 to 316 |
| CC(C)n1ncn(-c2ccc(N3CCN(C(C(=O)Nc4ccc5c(c4)CC(NC(=O)OC(C)(C)C)C5)c4ccccc4)CC3)cc2)c1=O (stereo not shown) [Compound 306] | < 31.6 |
| COC(=O)C(c1ccc(C)cc1)N1CCN(c2ccc(-n3cnn(C(C)c4ccccc4)c3=O)cc2)CC1 (stereo not shown) [Compound 318] | 316 to 3160 |
| COC(=O)C(c1ccccc1Cl)N1CCC(c2ccc(-n3cnn(C(C)C)c3=O)cc2)CC1 (stereo not shown) [Compound 319] | 31.6 to 316 |
